Values after ≈ are worked out from the molar mass of the structure shown. Values joined by “and” are separate entries in the source; they are usually repeats but may differ in a detail not shown here. Identical values can stand only once.
How the values were obtained:
[1] = system: Trichophyton rubrum (ATCC 28188); assay: Time-Kill test (Example 9); assay type: cell-based; conditions: Study 506-103
Description: A panel of “challenge microorganisms,” including select bacteria, yeast, and fungi was used to assess the disinfecting properties of test compounds, e.g., AMC (DPT Laboratories). […] The procedure was based on the ASTM procedure entitled, “Standard Test Method for the Assessment of Microbial Activity of Test Materials Using Time-Kill Procedure.”
A single lot of test material was prepared at various concentrations, along with multiple compounds prepared in various concentrations and combinations. These test materials were tested in duplicate against various bacteria, yeast and fungi. To minimize potential buffer interference and to minimize reduction of antimicrobial activity, the volume of the inoculum added to the test material was maintained at, or below, 1% of the total volume of the test. Samples were removed at various contact times. Serial dilutions were performed, and duplicate aliquots were plated. The plates were then incubated, and the average colony forming units (CFU) recovered per milliliter were determined for each contact time. The contact times for the test compounds with S. aureus, E. coli, P. aeruginosa, and C. albicans were 30 sec, 1 min, and 5 min. The contact times for the test compounds with B. subtilis were 1 and 10 min, 1 h, 2 h, 3 h, and 24 h. The contact times for the test compounds with T. rubrum were 30 sec, 1 min and 10 min. The contact temperature was ambient room temperature (20-21° C.).
The fungus, T. rubrum, was inoculated onto Emmon's agar (EA) and incubated at 25-30° C. for 10-15 days. The mycelial mats from mature cultures were removed from the surface of at least 5 plates and macerated with sterile saline (SS) in a sterile glass tissue grinder. The suspension was filtered through sterile glass wool to remove the hyphae.
The density of the conidial suspension was determined by serially diluting the prepared culture in BPDW. Aliquots from selected dilutions were plated on duplicate EA plates. The plates were incubated for 3-5 days at 25-30° C. and then each plate was examined for enumeration.
The suspension was stored at 2-10° C. for 4 weeks before use. On the day of testing, the suspension was adjusted to yield approximately 5.0×10^8 CFU by dilution with BPDW.
Compliant with the ASTM procedure cited above, the challenge microorganism was added to the test material by dispensing 99 ml of the test material into two sterile flasks, each containing a stir bar. The reaction flasks were allowed to equilibrate to the test temperature for at least 10 minutes. The flasks were placed in water baths on stir plates and maintained at the test temperature with stirring. A 1 ml aliquot of the prepared inoculum of the challenge microorganism was added to each flask to begin the contact period. At each contact time, 1 ml aliquot samples were removed and added to tubes containing 9 ml PBDW+. Serial 10-fold dilutions of each sample were then prepared in PBDW dilution blanks. Duplicate aliquots from selected dilutions were plated using the appropriate agar.
Upon completion of all contact periods, all plates were inverted and incubated for the appropriate time and temperature as follows: bacteria and yeast were incubated over 2 nights at 37° C.±2° C., and the fungus was incubated for at least 5 nights at 25-30° C. Following incubation, all plates were removed, the colonies were counted and the CFU recovered per ml at each contact time were calculated.

[2] = system: T. rubrum; assay: MIC and MBC determination by doubling dilutions (Study 509-102); assay type: cell-based, Trichophyton rubrum
Description: Table 2 below indicates the stock dilutions for each test agent, and a breakdown of the resulting concentrations for each of the doubling dilutions performed is summarized in Table 3.
From the stock dilutions, an initial 1:10 dilution was made (representing tube 1), followed by doubling dilutions (tubes 2-12), as detailed in Table 3.

[3] = system: C. albicans ATCC 10231; assay: NCCLS broth microdilution MIC and MFC (Example 10); assay type: cell-based, Candida albicans
Description: (§1) Strains of E. coli (ATCC 11229), D. aeruginosa (ATCC 15442), S. aureus (ATCC 25923), S. epidermidis (ATCC 12228), S. pyogenes (ATCC 19615), C. albicans (ATCC 10231), and T. rubrum (ATCC 28188) were used as “challenge microorganisms” in this study. Strains were removed from frozen stock and subcultured twice on blood agar to ensure that the strains had optimal growth and metabolic status before testing.
(§2) Amphotericin B, fluconazole, and Hibiclens were added as comparative agents in the fungal panels.
(§3) For testing purposes, AMC, AMC components, and Hibiclens were diluted to 50% of the working solution to cover the proposed AMC use dilution of 20%.
(§4) Microtiter panels were created on the day of MIC testing. A 50 μl aliquot of Mueller-Hinton broth (for bacterial strains) or RPMI 1640 (for fungal strains) was delivered to each well, except those in column one of the microtiter panel. The working solution of AMC and each of its components, and comparative agents were delivered to the designated wells in column one. AMC, components, and comparators were serially diluted across the panel. A 50 μl aliquot of bacterial or fungal suspension was then added to each well on the microtiter panel, using a new pipette tip for each aliquot. Panels were incubated at 35° C. for 16-20 h for the E. coli, P. aeruginosa, and S. aureus strains, 20-24 h for the S. pyogenes strain, and 48 h for the C. albicans strain. T. rubrum panels were incubated for 3 to 4 days before MICs were read. […] Fungal MICs (%) were read using an 80% reduction in the growth endpoint relative to the turbidity of the growth control for AMC, its components, and fluconazole. For amphotericin B, the endpoint was read as the complete inhibition of growth.
(§5) MFCs were determined in a similar manner.
(§6) The endpoint for amphotericin B was read as complete inhibition of growth. The MIC % is expressed as g/100 ml or ml/100 ml. […] The MFC % is expressed as g/100 ml or ml/100 ml.

[4] = system: T. rubrum ATCC 28188; assay: NCCLS broth microdilution MIC and MFC (Example 10); assay type: cell-based, Trichophyton rubrum; conditions: Example 10
Description: as §1, §2, §3, §4, §5, §6

[5] = system: C. albicans ATCC 10231; assay: NCCLS broth microdilution MIC and MFC (Example 11); assay type: cell-based, Candida albicans; conditions: for MIC: amphotericin B complete inhibition, terbinafine 50%/90%; for fungicidal activity: MFC within 1 doubling dilution of the MIC
Description: (§7) Strains of C. albicans (ATCC 10231) and T. rubrum (ATCC 28188) were tested in this study. Strains were removed from frozen stock and subcultured twice on blood agar to ensure that the strains had optimal growth and metabolic status before testing. Strains were tested by NCCLS broth microdilution (M27-A2, 2002) and challenged with AMC solution and its individual components […] ), and isopropanol. Amphotericin B, fluconazole, terbinafine, and Hibiclens were added as comparator compounds. […] Microtiter panels were created on the day of MIC testing. A 50 μl aliquot of RPMI 1640 was delivered to each well except those in column one of the microtiter panel. The working solution of AMC and each of its components, and comparative agents were delivered to the designated wells in column one; AMC, components, and comparators were serially diluted across the panel. A 50 μl aliquot of fungal suspension was then added to each well on the microtiter panel, using a new pipette tip for each aliquot. […] For amphotericin B, the endpoint was read as the complete inhibition of growth. […] MFCs were performed to determine the concentration at which ≧99% of the starting fungal inoculum was killed. […] After incubation, colony counts for each panel well plated were recorded. […] The endpoint for amphotericin B was read as complete inhibition of growth.

[6] = system: T. rubrum ATCC 28188; assay: NCCLS broth microdilution MIC and MFC (Example 11); assay type: cell-based, Trichophyton rubrum; conditions: Example 11; for fungicidal activity: MFC within 1 doubling dilution of the MIC
Description: as §7

[7] = Study 509-102, Inoculum Counts: 3.6 × 10^8
[8] = 80% reduction in growth, amphotericin B complete inhibition
[9] = MFC within 1 doubling dilution of the MIC

Question: C[C@@H]1[C@H](O)[C@@H](C)/C=C/C=C/C=C/C=C/C=C/C=C/C=C/[C@H](O[C@@H]2O[C@H](C)[C@@H](O)[C@H](N)[C@@H]2O)C[C@@H]2O[C@](O)(C[C@@H](O)C[C@@H](O)[C@H](O)CC[C@@H](O)C[C@@H](O)CC(=O)O[C@H]1C)C[C@H](O)[C@H]2C(=O)O [Amphotericin B] was tested. Which “Log10 Reduction” value ([1]; 30 sec. contact) did it give?
Answer: 1.0 Log10

Question: What about the “CFUs recovered per milliliter of T. rubrum culture” value ([1]; 30 sec. contact, initial 1.0 × 10^6 CFU/ml, Amphotericin B 2.5 mg/L) of the same compound?
Answer: 1.0 × 10^5 CFU/ml and 1.1 × 10^5 CFU/ml

Question: What about the “CFUs recovered per milliliter of T. rubrum culture” value ([1]; 60 sec. contact) of the same compound?
Answer: 6.9 × 10^4 CFU/ml and 8.7 × 10^4 CFU/ml

Question: And the “Log10 Reduction” value ([1]; 60 sec. contact)?
Answer: 1.2 Log10 and 1.1 Log10

Question: And the “Log10 Reduction” value ([1]; 10 min. contact)?
Answer: 1.0 Log10

Question: What about the “MBC (ppm)” value [2, 7] of the same compound?
Answer: >0.25 ppm

Question: What about the “MIC (ppm)” value [2, 7] of the same compound?
Answer: >0.25 ppm

Question: And the “MIC Against T. rubrum” value ([2]; Table 23, row head prints μg/mL)?
Answer: >0.25 µg/mL

Question: What about the “MIC” value [3, 8] of the same compound?
Answer: 0.12 µg/mL (≈ 0.13 µM)

Question: And the “MFC” value ([3]; 99.9% inhibition of growth)?
Answer: 0.12 µg/mL (≈ 0.13 µM)

Question: What about the fungicidal activity [3, 9] of the same compound?
Answer: Fungal activity

Question: What about the “MIC” value [4, 8] of the same compound?
Answer: 0.25 µg/mL (≈ 0.271 µM)

Question: And the “MFC” value ([4]; 99.9% inhibition of growth)?
Answer: 0.5 µg/mL (≈ 0.541 µM)

Question: What about the fungicidal activity [4, 9] of the same compound?
Answer: Fungicidal activity was observed

Question: What about the “MFC” value [5] of the same compound?
Answer: 0.5 µg/mL (≈ 0.541 µM)

Question: And the “MIC” value ([5]; 80% reduction in growth)?
Answer: 0.25 µg/mL (≈ 0.271 µM)

Question: And the fungicidal activity [5]?
Answer: Fungicidal activity

Question: And the “MFC” value [6]?
Answer: 0.5 µg/mL (≈ 0.541 µM)

Question: What about the “MIC” value [6, 8] of the same compound?
Answer: 0.25 µg/mL (≈ 0.271 µM)

Question: And the fungicidal activity [6]?
Answer: Fungicidal activity was observed

Question: How did the “MIC” value ([5]; 80% reduction in growth) turn out when CN(C/C=C/C#CC(C)(C)C)Cc1cccc2ccccc12 [Terbinafine] was run?
Answer: >0.5 µg/mL

Question: What about the MIC ([5]; Candida albicans, ATCC10231, 80% reduction in growth, read-out: MIC) of the same compound?
Answer: > 0.5 µg/mL

Question: What about the MFC ([5]; Candida albicans, ATCC10231, read-out: MFC) of the same compound?
Answer: > 0.5 µg/mL

Question: What about the fungicidal activity [5] of the same compound?
Answer: Fungicidal activity

Question: What about the fungicidal activity [6] of the same compound?
Answer: did not demonstrate fungicidal activity

Question: What about the MIC ([6]; Trichophyton rubrum, ATCC28188, read-out: MIC (μg/ml), read at 50% inhibition of growth, terbinafine, 50% reading) of the same compound?
Answer: 0.008 µg/mL (≈ 0.0275 µM)

Question: What about the MIC ([6]; Trichophyton rubrum, ATCC28188, read-out: MIC (μg/ml), read at 90% inhibition of growth, terbinafine, 90% reading) of the same compound?
Answer: 0.032 µg/mL (≈ 0.11 µM)

Question: And the MFC ([6]; Trichophyton rubrum, ATCC28188, read-out: MFC)?
Answer: 0.125 µg/mL (≈ 0.429 µM)
